Source: article PMC12386811, “Novel Carbazole–Thiazole Conjugates: Synthesis and Biophysical Characterization” (International Journal of Molecular Sciences, 2025)

Tests used:
[1] = target: mushroom tyrosinase (Agaricus bisporus, UniProt C7FF04); assay: Kinetic analysis of the inhibition of tyrosinase (Lineweaver–Burk plots); type: biochemical; conditions: inhibitor 0.05 and 0.1 mM, L-DOPA 0.1–0.25 mM
Protocol: Based on the Lineweaver–Burk double reciprocal plots, the inhibition mode for the three investigated compounds was established as mixed-type inhibition, i.e., the type of enzyme inhibition in which the inhibitor may bind to the enzyme regardless of whether or not the enzyme has already bound the substrate. […].
A series of experiments were performed to determine the inhibition kinetics of tested carbazoles by following the already reported method. The inhibitor concentrations for tested carbazoles were 0.05 and 0.1 mM. Substrate L-DOPA concentration was between 0.1 and 0.25 mM in all kinetic studies. Maximal initial velocity was determined from the initial linear portion of absorbance up to ten minutes after addition of enzyme. The inhibition type of the enzyme, Michaelis constant (Km) and maximal velicity (Vmax), were determined by Lineweaver–Burk plots of inverse of velocities (1/V) versus inverse of substrate concentration 1/[L-DOPA] mM^−1.

[2] = Thermogravimetric analysis (thermal stability); type: physicochemical; conditions: TGA, 15 °C/min under nitrogen
Protocol: Thermogravimetric analysis (TGA) allowed obtaining of thermal stability results for the presented compounds (K1–K3). For all derivatives, the temperature of 5% (T5) and 10% (T10) mass loss as well as the temperature of complete decomposition (Tmax) were determined. Referring to the T5 for K1–K3, we can see that it is in the range of 222 °C to 244 °C. Such high values indicate the high durability of these compounds. Moreover, the functional group in the substituent has a negligible effect on thermal stability. The best thermal properties are those of K3 compound, containing the 4-nitrophenyl group. In the case of replacing this group with benzonitrile (K2), we observe a slight decrease in T5 (by 13 °C), T10 (by 19 °C), and only one stage of Tmax degradation. On the other hand, compound K1 has the lowest T5 (222 °C). It is most likely due to the aliphatic nature of the substituent. Comparing the discussed derivatives (K1–K3) to their analogs described in the literature, we can see a significant similarity in thermal properties, despite different functional groups in the substituents.
Thermogravimetric analysis was performed on Perkin Elmer Thermogravimetric Analyzer Pyris 1 TGA at a heating rate of 15 °C/min under nitrogen. The electronic spectra were measured on a ThermoScientific Evolution 220 UV/Vis spectrometer. Photoluminescence emission spectra were acquired using Hitachi Fluorescence Spectrophotometer F-7100 [19].

[3] = Dissolution in solvents for absorption/emission studies; type: physicochemical; conditions: non-polar toluene
Protocol: Absorption and emission studies were carried out for investigated compounds K1–K3 using solvents of different polarities. The presented molecules differ in the substituent in thiazole ring. To check the influence of the substituent in the discussed molecules, the tests were carried out on solutions with a concentration of 2.5 × 10^−5 mol/L. In the first step, absorption maxima (λabs) were determined. The measured data are shown in Table 3, Figure 3, Figures S1 and S2.
Each of the derivatives has at least two bands registered in the absorption spectra. The main bands between 320 and 370 nm can be attributed to the π→π* transition. The next one is the band […] 300 nm. In the case of the presented molecules, the solvatochromic effect associated with the polarity of the solvent is not observed in the absorption spectra. The same behavior is shown by the analogs described in the literature. In the next step, the emission maxima were determined. For the K3 molecule, spectra were recorded only in chloroform, ethanol, and DMSO. […] For the rest, λem was successfully determined in several solvents. By analyzing the fluorescence spectra, the influence of the polarity of the solvent on the obtained results can be observed. […] Moreover, the Stokes shift increases from non-polar to polar solvents (K3 30 nm, K1 69 nm, K2 70 nm). […]

mushroom tyrosinase, sequence (C7FF04 1-392): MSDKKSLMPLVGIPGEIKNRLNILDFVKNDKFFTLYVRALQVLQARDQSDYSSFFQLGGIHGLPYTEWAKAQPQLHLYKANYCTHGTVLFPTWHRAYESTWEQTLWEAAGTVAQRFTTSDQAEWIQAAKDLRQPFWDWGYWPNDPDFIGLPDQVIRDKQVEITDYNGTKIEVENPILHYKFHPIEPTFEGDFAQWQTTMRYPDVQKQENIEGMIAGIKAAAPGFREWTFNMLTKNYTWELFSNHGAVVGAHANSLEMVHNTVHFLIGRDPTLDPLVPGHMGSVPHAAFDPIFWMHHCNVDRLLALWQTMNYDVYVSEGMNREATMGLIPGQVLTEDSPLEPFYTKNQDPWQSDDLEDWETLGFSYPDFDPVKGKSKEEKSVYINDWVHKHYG

Row | Inhibitory Mechanism [1] | Vmax [1] [mM/min] | T5 (temperature at 5% weight loss) [2] [°C] | T10 (temperature at 10% weight loss) [2] [°C] | solubility in toluene [3] | Structure (SMILES)
1 | Mixed | 0.2608 | 222 | 279 |  | C(=N\Nc1nc(C23CC4CC(CC(C4)C2)C3)cs1)/c1ccc(-n2c3ccccc3c3ccccc32)cc1 [K1, (E)-2-(2-(4-(9H-carbazol-9-yl)benzylidene)hydrazinyl)-4-(1-adamantyl)thiazole]
2 | Mixed | 0.4078 | 231 | 252 |  | N#Cc1ccc(-c2csc(N/N=C/c3ccc(-n4c5ccccc5c5ccccc54)cc3)n2)cc1 [K2, (E)-4-(2-(2-(4-(9H-carbazol-9-yl)benzylidene)hydrazinyl)thiazol-4-yl)benzonitrile]
3 | Mixed | 0.4718 | 244 | 271 | did not dissolve | O=[N+]([O-])c1ccc(-c2csc(N/N=C/c3ccc(-n4c5ccccc5c5ccccc54)cc3)n2)cc1 [K3, (E)-2-(2-(4-(9H-carbazol-9-yl)benzylidene)hydrazinyl)-4-(4-nitrophenyl)thiazole]
